The subject of assay [1] is S2− InsP3R-1. In words: CCh concentration-response of Ca2+ release in Dt-40 3ko cells expressing m3R and S2− InsP3R-1 constructs. It is filed as cell-based, rat. As to conditions: for maximum peak Δ response to CCh: Fura-2 340/380 ratio; for fold change from WT (CCh EC50): S2 − InsP3R-1 constructs, Table 2; for EC50: fit of normalized initial peak, read-out: EC50 for CCh-induced Ca^2+ release. From the text:
The rat S2^+ InsP3R-1 in the expression plasmid pIRES-GFP was digested with the restriction endonuclease SalI. The overhang created by digestion was blunted by using T4 polymerase. An EcoRI linker was then ligated onto the blunted ends of the construct. The entire receptor DNA was excised from the plasmid using EcoRI and ligated into the plasmid MXT-1. The region containing the S2^− splice variant and potential PKA phosphorylation sites was excised from its backbone in pCDNA 3.1+ by RsrII and KasI and ligated into the InsP3R construct in MXT-1. The potential PKA phosphorylation sites Ser-1589 and Ser-1755 were mutated, individually in both splice variants and together in the S2^− splice variant, to alanines or glutamates by using sequential PCR mutagenesis. The outside primers used for the mutagenesis reaction flanked the restriction sites RsrII and KasI. Following mutation, the resulting fragments were cut with RsrII and KasI and inserted into the InsP3R-1 backbone at the corresponding sites. The mutations were confirmed by Big Dye fluorescent sequencing. Mutated receptor DNAs were excised from MXT-1 by using EcoRI and ligated into the mammalian expression vector pGW (provided by Dr. David Yue, Johns Hopkins University). Orientation was confirmed by using restriction enzyme digestion. Mutants were named based on the splice variant, either S2+ or S2− followed by the amino acid present at position 1589 and 1755. Thus, a mutation in S2^+ InsP3R-1 S1755E is designated, “S2+SE,” and in InsP3R-1 […] S1755A is designated “S2^−SA”. Similarly, an S2− InsP3R-1 with mutations in both S1589E and S1755E is designated “S2−EE”. The numbering of residues is based on the full-length rat InsP3R-1.
Dt-40 cells lacking all three InSP3 receptor subtypes were transfected by using electroporation at 350 V and 950 microfarads (4-mm gap cuvette). 2×10^7 cells were co-transfected with 25 μg of the InsP3R-1 cDNA, 25 μof the muscarinic type 3 (m3R) receptor DNA, and 4 μg of the red fluorescent protein plasmid pHcRed1-N1 (Clontech). Cells were incubated with DNA in 500 μl of Opti-MEM media (Invitrogen) on ice for 10 min. The cell/DNA mixture was electroporated, incubated on ice for 30 min, increased to 5 ml with Opti-MEM, and placed in a 5% CO2 incubator at 39° C. for 5 h. The cells were then centrifuged and resuspended in 12 ml of complete RPMI media (Invitrogen). Transfection efficiency was typically ˜20%. Experiments were performed within 32 h of transfection.
Transfected Dt-40 3ko cells were washed once in a HEPES-buffered physiological saline solution (HEPES-PSS) containing (in mM) 5.5 glucose, 137 NaCl, 0.56 MgCl2, 4.7 KCl, 1 Na2HPO4, 10 HEPES (pH 7.4), 1.2 CaCl2, and 1% w/v bovine serum albumin. Cells were then resuspended in bovine serum albumin HEPES-PSS with 1 μM Fura-2 (AM), placed on a 15-mm glass coverslip in a low volume perfusion chamber, and allowed to adhere for 30 min at room temperature. Cells were perfused continuously for 10 min with HEPES-PSS before experimentation to allow complete Fura-2 de-esterification. A field of cells for each experiment was chosen that contained a wide range of transfection efficiency based upon the intensity of red fluorescence emitted when excited at 560 nm. Individual cells that had emission gray levels between 1500 and 2500 were subsequently chosen to standardize expression levels. [Ca^2+]i imaging was performed essentially as described previously by using an inverted epifluorescence Nikon microscope with a 40× oil immersion objective lens (numerical aperture, 1.3) (100). Cells were excited alternately with light at 340 and 380±10 nm bandpass filters (Chroma, Rockingham, Vt.) using a monochrometer (TILL Photonics, Pleasanton, Calif.). Fluorescence images were captured and digitized with a digital camera driven by TILL Photonics software. Images were captured every 2 s with an exposure of 2 ms and 4 by 4 binning. 340/380 ratio images were calculated online and stored immediately to a hard disk. […]

For assay [2], the system named is S2− InsP3R-1. In words: Phosphorylation of Ser-1755 after forskolin in transfected HEK-293 cells (immunoprecipitation, Western blot). It is filed as cell-based, rat. The following applies: 20 μM forskolin 10 min, α-phospho-Ser-1755 blot. As for the experimental part:
HEK-293 cells were plated onto 25-cm^2 culture flasks and allowed to grow to near-confluency. Cells were transfected with 5 μg of each S2− InsP3R-1 DNA construct by using the LipofectAMINE reagent (Invitrogen) as per the manufacturer's instructions. The following day, batches of cells were treated in the presence or absence of 20 μM forskolin for 10 min, aspirated from flasks, lysed, and immunoprecipitated with a polyclonal α-InsP3R-1 antibody that recognizes amino acids 2731-2749 of InsP3R-1. Immunoprecipitates were separated on 5% SDS gels transferred to nitrocellulose and then probed with either the α-InsP3R-1 antibody or a polyclonal antibody that recognizes the phosphorylated state of Ser-1755 (39) (α-phospho-Ser-1755), kindly provided by Dr. S. Snyder. Blots that were probed with a-phospho-Ser-1755were stripped and reprobed with the α-InsP3R-1 antisera to confirm the presence and relative quantity of the InsP3R-1.
The enhanced apparent sensitivity of individual phosphomimetic mutants was essentially equal and intermediate between the sensitivity of the S2−WT and S2−EE mutations. […] To address this possibility directly, experiments were performed evaluating the effects of activating endogenous PKA in cells expressing S2−SE or S2−ES to mimic prior phosphorylation of an individual site. […] To test this, experiments were performed to determine the phosphorylation state of the various mutants after raising cAMP levels. These experiments were performed in HEK-293 cells because of the high transfection efficiency and low endogenous levels of InsP3R-1 (47, 99). […] Following incubation of the lysates with α-InsP3R-1 antibody, the immune complexes were captured and separated on SDS gels, and the phosphorylation status of Ser-1755 was determined by Western blotting with an antibody that specifically recognizes this phosphorylated residue in InsP3R-1 (39).
Background: In western blotting, separated proteins are transferred to a membrane and probed.

[3] abbreviates: listed as S1589E/S1755E mutant InsP3R-1.

Entries after “also recorded” stand apart in the source; their conditions may differ. Like-named read-outs stand apart in the source and are kept apart here.

The source of these data is patent US20080039410A1, “Inositol 1,4,5-Trisphosphate Receptor Mutants and Uses Thereof” (priority 2004, published 2008).

Usually EC50 stands for the concentration at which the effect is half-maximal.

“G1690A: InsP3R-1 S2− variant with glycine to alanine substitution at position 1690 (nucleotide binding site mutant)”: the “maximal response in full CCh concentration-response curve” value in assay [1] was “comparable to that seen in the wild-type receptor”. Moreover, the “phosphorylation of Ser-1755 after forskolin” value (shortened to “phosphorylation”) in assay [2] is listed as “not susceptible to phosphorylation; also recorded: not phosphorylated”.
Consider “S2−EE: phosphomimetic S1589E/S1755E mutant of the short splice variant”, for which, in assay [1], the “sensitivity of CCh-induced Ca^2+ release relative to other constructs” value was “greatest”, the “maximum peak Δ response to CCh” value is listed as 1.13+0.1 ratio units, the “fold change from WT (CCh EC50)” value is on record as 7.6 fold and the concentration giving a half-maximal response (EC50) came to 0.0043 µM. For the same substance, in assay [1] (listed as S2− mutant), the “fold more sensitive than nonphosphorylatable S1589A/S1755A S2− InsP3R-1” value is given as around 50 fold and the “fold more sensitive than wild type S2− InsP3R-1 (CCh-induced Ca^2+ release)” value is given as 7.5 fold. Further, in assay [1] (setting [3]), the “fold more sensitive than nonphosphorylatable S1589A/S1755A S2− InsP3R-1” value is “approximately 35 fold”, the “fold more sensitive than wild type S2− InsP3R-1 (CCh-induced Ca^2+ release)” value is “approximately 7.5 fold” and the “sensitivity of CCh-induced Ca^2+ release relative to other constructs” value is “markedly potentiated Ca^2+ release”. In addition, the “phosphorylation” value in assay [2] was “no phosphorylation”.
“S2−ES: phosphomimetic short splice variant S1589E”: in assay [1], the “fold more sensitive than wild type S2− InsP3R-1 (CCh-induced Ca^2+ release)” value is given as around 3 fold, the “sensitivity of CCh-induced Ca^2+ release relative to other constructs” value is listed as “intermediate sensitivity”, the “maximum peak Δ response to CCh” value came to 0.54±0.1 ratio units and the “fold change from WT (CCh EC50)” value was 2.6 fold. In addition, the EC50 in assay [1] amounted to 0.0124 ± 0.0005 µM. Besides, the “phosphorylation” value in assay [2] is “no phosphorylation; also recorded: lack of phosphorylation”.
On to “S2−SE: phosphomimetic short splice variant of S1755E”, for which, in assay [1], the “fold more sensitive than wild type S2− InsP3R-1 (CCh-induced Ca^2+ release)” value is on record as around 3 fold, the “sensitivity of CCh-induced Ca^2+ release relative to other constructs” value is “intermediate sensitivity”, the “maximum peak Δ response to CCh” value stood at 0.78±0.1 ratio units and the “fold change from WT (CCh EC50)” value was 2.4 fold. Further, the concentration for a half-maximal effect (EC50) in assay [1] was 0.0135 ± 0.001 µM. For the same substance, the “phosphorylation” value in assay [2] is listed as “no phosphorylation”.
As to “S2−WT: wild-type rat type-1 InsP3 receptor, peripheral short S2− splice variant (SEQ ID NO: 17)”, in assay [1], the “maximum peak Δ response to CCh” value amounted to 0.9±0.1 ratio units, the “fold change from WT (CCh EC50)” value came to 1 fold and the concentration giving a half-maximal response (EC50) is 0.0326 ± 0.0075 µM. Besides, in assay [2] (listed as S2−InsP3R-1), the “phosphorylation” value is on record as “results in phosphorylation”. In addition, the “phosphorylation” value in assay [2] (listed as wild type S2^−InsP3R-1) was “robustly phosphorylated”.
